Assay results as given in US10597390B2, “Indoles for use in influenza virus infection” (Janssen Sciences Ireland UC, priority 2014, dated 2020).
Counter-ions that a name gives are not always drawn.

Columns and labels:
[1] = tested on: influenza virus A/Taiwan/1/86 (H1N1); assay: organism not typed; assay type: cell-based; settings: CPE in MDCK cells, three days post-virus exposure, ATPlite
in vitro = settings: dog, TOX MDCK CC50

SMILES	melting point	IC50 ([1]; MDCK, 72 h)	CC50 at 3 days (in vitro)	IC50 [1]
Nc1n[nH]c(C(=O)N[C@@H]2CCC[C@H](Nc3nc(-c4c[nH]c5c(F)cc(F)cc45)ncc3F)C2)n1	> 300 °C			
O=C(N[C@@H]1CCC[C@H](Nc2nc(-c3c[nH]c4c(F)cc(F)cc34)ncc2F)C1)c1nnn[nH]1	270.2 °C			
Cc1cc(F)c2[nH]cc(-c3ncc(F)c(N[C@H]4C5CCC(CC5)[C@@H]4C(=O)O)n3)c2c1 (mixture of isomers) (as salt: TFA) [Compound 164]	> 250 °C			
Cc1cc(F)c2[nH]cc(-c3ncc(F)c(N[C@@H]4CCC[C@@H](NC(=O)N5CCCC5)C4)n3)c2c1 (racemic) [Compound 20]	94 °C	12 nM	15100 nM	
Cc1cc(F)c2[nH]cc(-c3ncc(F)c(N[C@@H]4CCC[C@H](NC(=O)c5ccccn5)C4)n3)c2c1 (racemic) [Compound 21]	208 °C	4 nM	4800 nM	
Cc1cc(F)c2[nH]cc(-c3nc(N[C@@H]4CCC[C@@H](NC(=O)c5ccccn5)C4)c(F)cc3C#N)c2c1 (racemic) [Compound 22, N-((cis)-3-((5-cyano-3-fluoro-6-(7-fluoro-5-methyl-1H-indol-3-yl)-pyridin-2-yl)amino)cyclohexyl)picolinamide]	98 °C	12 nM	> 25000 nM	
NC(=O)c1cc(F)c(N[C@@H]2CCC[C@H](NC(=O)N3CCCC3)C2)nc1-c1c[nH]c2c(F)cc(F)cc12 (racemic) [Compound 23]	249.2 °C	140 nM	> 25000 nM	
Cc1cc(C(=O)N[C@@H]2CCC[C@H](Nc3nc(-c4c[nH]c5c(F)cc(Cl)cc45)ncc3F)C2)on1 (racemic) [Compound 29]	246.7 °C	17 nM	3400 nM	
Cc1cc(F)c2[nH]cc(-c3ncc(F)c(NC(CC(=O)O)C(C)(C)C)n3)c2c1 (racemic) [Compound 167]	182 °C	30 nM	3500 nM	
Cc1cc(F)c2[nH]cc(-c3nc(N[C@@H]4CCC[C@@H](NC(=O)c5ncoc5C)C4)c(F)cc3C#N)c2c1 (racemic) [Compound 192]	> 250 °C	11 nM	> 25000 nM	
Cc1cc(F)c2[nH]cc(-c3ncc(F)c(N[C@H]4CCC[C@@H](NC(=O)c5ncsc5C)C4)n3)c2c1 (racemic) [Compound 193]	234 °C	5 nM	3600 nM	
Cc1cc(F)c2[nH]cc(-c3ncc(F)c(N[C@@H]4CCC[C@@H](NC(=O)c5ncoc5C)C4)n3)c2c1 (racemic) [Compound 194]	140 °C	17 nM	11200 nM	
Cc1cc(F)c2[nH]cc(-c3nc(N[C@H]4CCC[C@@H](NC(=O)c5cn(C)cn5)C4)c(F)cc3C#N)c2c1 (racemic) [Compound 195]	> 250 °C	20 nM	6600 nM	
Cc1cc(F)c2[nH]cc(-c3ncc(F)c(N[C@@H]4CCC[C@@H](NC(=O)c5cn(C)cn5)C4)n3)c2c1 (racemic) [Compound 196]	> 250 °C	21 nM	10300 nM	
Cc1cc(F)c2[nH]cc(-c3ncc(F)c(N[C@@H]4CCC[C@@H](NC(=O)c5cncn5C)C4)n3)c2c1 (racemic) [Compound 198]	98 °C	40 nM	9700 nM	
Cc1cc(F)c2[nH]cc(-c3ncc(F)c(N[C@@H]4CCC[C@@H](NC(=O)c5nc(C)oc5C)C4)n3)c2c1 (racemic) [Compound 199]	170 °C	46 nM	13000 nM	
Cc1cc(F)c2[nH]cc(-c3nc(N[C@@H]4CCC[C@@H](NC(=O)c5nc(C)oc5C)C4)c(F)cc3C#N)c2c1 (racemic) [Compound 200]	> 250 °C	160 nM	> 25000 nM	
Cc1cc(F)c2[nH]cc(-c3nc(N[C@@H]4CCC[C@@H](NC(=O)c5cncs5)C4)c(F)cc3C#N)c2c1 (racemic) [Compound 201]	> 250 °C	10 nM	> 21800 nM	
Cn1ccc(C(=O)N[C@@H]2CCC[C@@H](Nc3nc(-c4c[nH]c5c(F)cc(F)cc45)c(C#N)cc3F)C2)n1 (racemic) [Compound 205]	103 °C	4 nM	> 25000 nM	
N#Cc1cc(F)c(N[C@H]2CCC[C@@H](NC(=O)c3ncccc3F)C2)nc1-c1c[nH]c2c(F)cc(F)cc12 (racemic) [Compound 212]	289 °C	10 nM	> 25000 nM	
CS(=O)(=O)NCc1cc(F)c(N[C@@H]2CCC[C@H](NC(=O)N3CCCC3)C2)nc1-c1c[nH]c2c(F)cc(F)cc12 (racemic) [Compound 250, N-((cis)-3-((6-(5,7-difluoro-1H-indol-3-yl)-3-fluoro-5-(methylsulfonamidomethyl)pyridin-2-yl)amino)cyclohexyl)pyrrolidine-1-carboxamide]	252.1 °C	780 nM	> 25000 nM	
C=Cn1cnc(C(=O)N[C@@H]2CCC[C@H](Nc3nc(-c4c[nH]c5c(F)cc(F)cc45)ncc3F)C2)c1 [Compound 89]		4 nM	7300 nM	
CCn1ccnc1C(=O)N[C@@H]1CCC[C@H](Nc2nc(-c3c[nH]c4c(F)cc(F)cc34)ncc2F)C1 [Compound 125]		4 nM	10200 nM	

SMILES	melting point	IC50 ([1]; MDCK, 72 h)	CC50 at 3 days (in vitro)	IC50 [1]
O=C(O)c1cccc(C(=O)N[C@@H]2CCC[C@H](Nc3nc(-c4c[nH]c5c(F)cc(F)cc45)ncc3F)C2)n1 [Compound 157]		330 nM	> 25000 nM	
O=C(N[C@@H]1CCC[C@H](Nc2nc(-c3c[nH]c4c(F)cc(F)cc34)ncc2F)C1)c1cc(=O)[nH][nH]1 [Compound 158]		15 nM	13000 nM	
Cn1[nH]c(=O)cc1C(=O)N[C@@H]1CCC[C@H](Nc2nc(-c3c[nH]c4c(F)cc(F)cc34)ncc2F)C1 [Compound 160]		0.6 nM	> 25000 nM	
N#Cc1cc(F)c(N[C@@H]2CCC[C@H](NC(=O)N3CCCC3)C2)nc1-c1c[nH]c2c(F)cc(F)cc12 [Compound 162]			> 23000 nM	0.5 nM
Cc1cc(F)c2[nH]cc(-c3ncc(F)c(N[C@@H]4C5CCC(CC5)[C@H]4C(=O)O)n3)c2c1 [Compound 165]		> 25000 nM	2300 nM	
Cn1cnc(C(=O)N[C@H]2CCC[C@H](Nc3nc(-c4c[nH]c5c(F)cc(F)cc45)c(C#N)cc3F)C2)c1 [Compound 183]		1100 nM	> 25000 nM	
Cn1cnc(C(=O)N[C@@H]2CCC[C@H](Nc3nc(-c4c[nH]c5c(F)cc(F)cc45)c(C#N)cc3F)C2)c1 [Compound 184]		3 nM	> 25000 nM	
Cn1cnc(C(=O)N[C@@H]2CCC[C@H](Nc3nc(-c4c[nH]c5c(F)cc(Cl)cc45)c(C#N)cc3F)C2)c1 [Compound 185]		4 nM	10200 nM	
CC(C)(C)[C@H](CC(=O)O)Nc1nc(-c2c[nH]c3c(F)cc(F)cc23)ncc1F [Compound 186]		10 nM	3800 nM	
O=C(N[C@@H]1CCC[C@H](Nc2nc(-c3c[nH]c4c(F)cc(Cl)cc34)ncc2F)C1)c1ccccn1 [Compound 188]			11000 nM	5 nM
Cn1cnc(C(=O)NC2CC(Nc3nc(-c4c[nH]c5c(F)cc(F)cc45)ncc3F)CC(C)(C)C2)c1 (stereo not drawn) [Compound 202, N-(5-((2-(5,7-difluoro-1H-indol-3-yl)-5-fluoropyrimidin-4-yl)amino)-3,3-dimethylcyclohexyl)-1-methyl-1H-imidazole-4-carboxamide]		790 nM	3900 nM	
O=C(N[C@@H]1CCC[C@H](Nc2nc(-c3c[nH]c4c(F)cc(F)cc34)ncc2F)C1)c1ccc(O)nn1 [Compound 203]		2 nM	> 25000 nM	
Cc1cc(C(=O)N[C@@H]2CCC[C@@H](Nc3nc(-c4c[nH]c5c(F)cc(F)cc45)c(C#N)cc3F)C2)no1 [Compound 204]		10 nM	6800 nM	
N#Cc1cc(F)c(N[C@H]2CCC[C@@H](NC(=O)[C@@H](O)c3ccccc3)C2)nc1-c1c[nH]c2c(F)cc(F)cc12 [Compound 213]		390 nM	3400 nM	
CC(C)(C)C(CC(=O)O)Nc1nc(-c2c[nH]c3c(F)cc(F)cc23)c(C#N)cc1F (stereo not drawn) [Compound 219]		5 nM	210 nM	
CC(C)(c1cccs1)C(CC(=O)O)Nc1nc(-c2c[nH]c3c(F)cc(F)cc23)ncc1F (stereo not drawn) [Compound 230]		41 nM	4000 nM	
CC1(C(CC(=O)O)Nc2nc(-c3c[nH]c4c(F)cc(F)cc34)ncc2F)CCCC1 (stereo not drawn) [Compound 249]		11 nM	1200 nM	
CC[C@@]1(C(=O)O)CCCC[C@H]1Nc1nc(-c2c[nH]c3c(F)cc(F)cc23)ncc1F [Compound 253]		120 nM	15200 nM	
O=C(O)[C@@H]1CCCC[C@@H]1Nc1nc(-c2c[nH]c3c(F)cc(F)cc23)ncc1F [Compound 254]		320 nM	14700 nM	
CCOC(=O)NCc1cc(F)c(NC(CC(=O)O)C(C)(C)C)nc1-c1c[nH]c2c(F)cc(F)cc12 (stereo not drawn) [Compound 256]		290 nM	13100 nM	
CC(C)(C)[C@@H](CO)Nc1nc(-c2c[nH]c3c(F)cc(F)cc23)c(C#N)cc1F [Compound 257, (S)-2-(5,7-difluoro-1H-indol-3-yl)-5-fluoro-6-((1-hydroxy-3,3-dimethyl-butan-2-yl)amino)nicotinonitrile]		130 nM	7000 nM	
O=C(NC1COCC(Nc2nc(-c3c[nH]c4c(F)cc(F)cc34)ncc2F)C1)c1cnn[nH]1 (stereo not drawn) [Compound 261, N-(5-((2-(5,7-difluoro-1H-indol-3-yl)-5-fluoropyrimidin-4-yl)amino)-tetrahydro-2H-pyran-3-yl)-1H-1,2,3-triazole-5-carboxamide]		1000 nM	> 25000 nM	
